We go through two compounds from patent publication US12090225B2 (Avalyn Pharma Inc., priority 2018, dated 2024).

Data set [1] in a line: Temperature-solubility of nintedanib HBr Pattern 4 and Pattern X. The settings on record: distilled water, over 48 hours. The class given is physicochemical. The protocol: During this time period, the samples were periodically taken out of the storage, vortexed, and returned to storage condition. At the end of the incubation period, the test solutions were filtered through a 0.22 μm nylon membrane syringe filter and analyzed by uv/vis spectrophotometry (at 390 nm) for drug concentration. Table 29 summarizes the solubility of both salt forms as a function of temperature. The solubility of both polymorphic forms increases with increasing temperature. Both polymorphic forms have similar solubility profiles.

Data set [2] is described as follows: pH-solubility of nintedanib HBr Pattern 4 and Pattern X. The class given is physicochemical. The settings on record: distilled water, over 48 hours, UV/vis 390 nm, unit assumed. How it is done: The solubility of Pattern 4 and Pattern X at various pH values were determined by UV/vis spectrophotometry. Excess Pattern 4 and Pattern X HBr salts were added to distilled water, vortexed at high speed and the pH was adjusted to the target value by adding 1N HCl or 1N NaOH. The test solutions were mixed on a magnetic stirrer for over 48 hours, then filtered through a 0.22 μm nylon membrane syringe filter and analyzed by uv/vis spectrophotometry at 390 nm. […] The solubility of both polymorphic forms decreases with increasing pH. Both polymorphic forms have similar solubility profile.

With `Br.COC(=O)c1ccc2c(c1)NC(=O)/C2=C(\Nc1ccc(N(C)C(=O)CN2CCN(C)CC2)cc1)c1ccccc1` [Nintedanib HBr Pattern X, Nintedanib hydrobromide, XRPD Pattern X], the “Nintedanib HBr Solubility” value in data set [1] (5° C.) is 650 µg/mL; in data set [1] (22° C.) it was 1490 µg/mL; in data set [1] (40° C.), 3410 µg/mL. Besides, the solubility (as a rule, the concentration that dissolves in the medium under given conditions) stood at 1860 µg/mL in data set [2] (pH 3.1), 1720 µg/mL in data set [2] (pH 3.9), 1490 µg/mL in data set [2] (pH 4.4) and 1400 µg/mL in data set [2] (pH 5.1).

On to `Br.COC(=O)c1ccc2c(c1)NC(=O)/C2=C(\Nc1ccc(N(C)C(=O)CN2CCN(C)CC2)cc1)c1ccccc1` [Nintedanib HBr Pattern 4, Nintedanib hydrobromide, XRPD Pattern 4], for which the “Nintedanib HBr Solubility” value turned out to be 790 µg/mL in data set [1] (5° C.), 1380 µg/mL in data set [1] (22° C.) and 3200 µg/mL in data set [1] (40° C.). Besides, the solubility was determined as 2010 µg/mL in data set [2] (pH 3.1), 1470 µg/mL in data set [2] (pH 3.9), 1380 µg/mL in data set [2] (pH 4.7) and 1070 µg/mL in data set [2] (pH 5.3).
